According to publication PMC5433508 (Chemical Science, 2017):

Test system: MDA-MB-231 cells
Assay: MTT cell viability assay, MDA-MB-231
Type: cell-based, human
Conditions: co-treatment with LYN-1604 for 24 h

## CNC(=O)c1ccccc1Oc1nc(Nc2cc(OC)c(OC)c(OC)c2)ncc1Br [SBI-0206965]
  effect on LYN-1604-induced cell death: decrease LYN-1604-induced cell death
